We go through three molecules from article PMC8719067 (Haematologica, 2021).

Data set [1] deals with B-cell lines or primary CLL cells. The note with it: cited from earlier work.
Data set [2] concerns chronic lymphocytic leukemia. Particulars: patients with CLL, median of 3.4 years of follow-up; cited from earlier work.
Data set [3] deals with MEC-1 cells. As to the kind of experiment: cell cycle profile. The format is cell-based. The note with it: MEC-1, 24 hours.
Data set [4] deals with MEC-1 cells overexpressing BTKWT. Kind of data set: reverse-phase protein array. The note with it: RPPA; for decrease in phospho-ERK: BTKWT cells.
Data set [5] relates to MEC-1 cells. Kind of data set: cell death. Particulars: MEC-1, 1, 24 hours. Type of data set: cell-based.
The test system of data set [6] is MEC-1 cells with either wild-type or mutant BTK. As to the kind of experiment: reverse-phase protein array. Particulars: RPPA.
A further data set relates to B-cell malignancies. Particulars: phase 1b clinical trial; cited from earlier work.
Data set [7] relates to BCR pathway in primary CLL cells. As to the kind of experiment: immunoblot of BCR pathway proteins in primary CLL cells. Type of data set: cell-based, human. Particulars: BTKWT and BTKT474F (gate-keeper mutation). In general terms: A western blot detects proteins with antibodies after separation by electrophoresis.
Data set [8] concerns PLCg2 phosphorylation in Ramos Burkitt lymphoma cells. As to the kind of experiment: phospho-PLCg2 inhibition in the Ramos cell line. Particulars: Homo sapiens, read-out: IC50 of inhibition of PLCg2 phosphorylation. Type of data set: cell-based.

SMILES strings stand for the structures.

With `CC#CC(=O)N1CCC[C@H]1c1nc(-c2ccc(C(=O)Nc3ccccn3)cc2)c2c(N)nccn12` [acalabrutinib], in data set [1], the “cell death induced in vitro” value was “limited”.

For `C=CC(=O)N1CCC[C@@H](n2nc(-c3ccc(Oc4ccccc4)cc3)c3c(N)ncnc32)C1` [ibrutinib, reference compound], the “cumulative incidence of progression” value in data set [2] is listed as 19%. For the same molecule, in the data set with MEC-1 cells [3], the cell cycle profiles result is on record as “did not alter”. Moreover, in [4], the “decrease in phospho-ERK” value worked out at 2 log. Besides, the cell death with MEC-1 cells [5] was 15-20%. Also, the “decrease in PD1 levels (ibrutinib vs vecabrutinib)” value in data set [6] is “larger decrease”. In addition, in data set [1], the “cell death induced in vitro” value is reported as “limited”.

`NC(=O)[C@H]1CCN(c2ncnc(N)c2F)C[C@@H]1N1CCC[C@@H](Nc2cc(Cl)cc(C(F)(F)F)c2)C1=O` [vecabrutinib]: in the data set on MEC-1 cells [3], the cell cycle profiles entry is listed as “did not alter”. Further, in [4], the “decrease in phospho-ERK” value is listed as 2 log. Moreover, the “responses for all proteins compared to those to ibrutinib” value in data set [4] (WT cells) is “deeper or similar responses”. The tolerability result in the data set with B-cell malignancies is on record as “well-tolerated”. Further, the “BCR pathway (phosphorylation of BTK, ERK, and S6) signaling” value in data set [7] is “inhibited”. Moreover, the IC50 in data set [8] was determined as 13 ± 6 nM. Also, the cell death in the data set on MEC-1 cells [5] is given as 15-20%. In data set [6] (WT and mutant cell lines), the “S727 phosphorylation on STAT3” value is “decreased” and the “Y705 phosphorylation on STAT3” value is recorded as “decreased”. In addition, the phospho-S6K entry in data set [6] (all three cell types, compared to ibrutinib) was “profoundly decreased”. The “cleaved caspase 7” value in [6] (all transduced cell lines) was “increased”.

Usually IC50 stands for the concentration that inhibits the measured activity by half.
